Laboratory results: US5283243A, “Piperidinoalkylbenzoxazine and piperidinoalkylbenzothiazine compounds, and medicaments containing them” (Kali-Chemie Pharma GmbH, priority 1990, dated 1994)

Target: T1, histamine-(H1)-receptor (Cavia porcellus, UniProt P31389)
T1 construct: Segments of the ileum 1.5 cm long from Dunkin Hartley guinea pigs; from tissue; host or cells: isolated ileum segments of Dunkin Hartley guinea pigs
Test: Anti-histamine-(H1) effect, inhibition of histamine-induced contraction of isolated guinea pig ileum in vitro
Assay type: cell-based, Dunkin Hartley guinea pigs
Settings: histamine 5 × 10^-6 mole/l, test substance 10^-6 mole/l
Protocol: 3. Investigation of Anti-Histamine-(H1) Effect Based on Histamine-(H1)-Receptor Antagonism In Vitro
To investigate the histamine-(H1)-receptor antagonism of the test substances, the inhibiting effect of the substances on histamine-induced contractions of the smooth muscle was determined in vitro on the isolated organ. Isolated strips of organ from the ileum are suitable for this purpose. In an organ bath of physiological saline solution the smooth muscle strips react to the addition of histamine by contracting. […] The extent of regression of the contraction is an indication of the anti-histamine-(H1) activity of the compounds. The investigation was carried out analogously to the method originally described by Magnus (Pfluegers Arch. 102, 123 (1904)). Procedure for determining the smooth muscle contraction inhibiting effect on isolated guinea pig ileum induced by a 5×10^-6 molar histamine concentration.
Segments of the ileum 1.5 cm long from Dunkin Hartley guinea pigs having a body weight of 300 500 g were used for the test. Each strip was placed in an organ bath of 10 ml of physiological saline solution according to Krebs-Henseleit and attached to a conventional apparatus for isotonic measurement of changes in length of the ileum strips (automated Celaster measuring apparatus), so that the tissue was under 1 g of tension. The bath was kept at a pH of 7.4 and gassed with a mixture of 5% CO2 and 95% 02. After an equilibration phase, an isotonic contraction of the tissue was induced by adding histamine in a final concentration of 5×10^-6 mole/liter and washing it out again after a contact time of 30 seconds. Only tissues samples from which three reproducible contractions were obtained at 10 minute intervals were used in the subsequent test. The test substances were then added in a final concentration of 10^-6 mole/liter, and after 30 seconds contact time histamine was again added up to a concentration of 5×10^-6 mole/liter. The resulting contractions were measured over 30 seconds. The tissue was then washed several times over a period of 10 minutes. Histamine was then added again to stimulate a contraction. The resulting contractions were again measured over 30 seconds. The difference between the amplitude of the contraction obtained by histamine addition alone and the amplitude of the contraction obtained in the presence of the test substance was determined and expressed in terms of % inhibition.
The inhibiting effects on the contractions induced by histamine 30 seconds after administration of the test substance and on the contractions induced by the addition of histamine 10 minutes later are listed in the table.

T1 sequence (P31389 whole entry): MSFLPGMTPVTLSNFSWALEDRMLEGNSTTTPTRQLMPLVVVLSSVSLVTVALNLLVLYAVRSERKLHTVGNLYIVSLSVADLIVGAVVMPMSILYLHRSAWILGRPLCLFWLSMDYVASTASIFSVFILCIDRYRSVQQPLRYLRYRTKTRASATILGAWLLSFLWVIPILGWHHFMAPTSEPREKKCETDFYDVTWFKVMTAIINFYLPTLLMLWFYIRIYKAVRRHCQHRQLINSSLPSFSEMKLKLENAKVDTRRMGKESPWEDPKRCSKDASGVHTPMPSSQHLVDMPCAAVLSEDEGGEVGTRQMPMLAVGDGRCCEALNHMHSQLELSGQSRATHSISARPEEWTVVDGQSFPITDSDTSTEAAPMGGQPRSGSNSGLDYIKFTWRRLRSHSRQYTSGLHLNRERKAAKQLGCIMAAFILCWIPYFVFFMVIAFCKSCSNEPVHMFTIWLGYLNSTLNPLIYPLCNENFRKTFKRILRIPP

O=C1Nc2ccccc2SC1CCCN1CCC(Nc2nc3ccccc3n2Cc2ccc(F)cc2)CC1 (centres unmarked) [Example 8]
in vitro (H1)-receptor antagonism, % inhibition of histamine-induced ileum contractions after 30 seconds (after 30 seconds): 5%
in vitro (H1)-receptor antagonism, % inhibition of histamine-induced ileum contractions after 10 minutes (after 10 minutes): 44%
